The values below come from patent publication US11364256B2, “Viral inhibition” (Monash University, priority 2020, dated 2022).

Where two headings read alike, the source gives them in different places.

The test system of series [1] is SARS-CoV-2 isolate Australia/VIC01/2020. Kind of series: SARS-CoV-2 infected Vero/hSLAM cells treated after infection, viral RNA by real-time RT-PCR. It is filed as cell-based.
In series [2] the test system is SARS-CoV-2. The experiment in a line: Prophylactic pre-treatment of Vero/hSLAM cells before SARS-CoV-2 infection, viral load by real-time PCR of supernatant. It is filed as cell-based. The protocol: Vero/hSLAM cells were pre-treated with DMSO, ivermectin or Moxidectin at the indicated concentrations for 2 h prior to infection with SARS-CoV-2 (MOI=0.01) for 2 h in the presence of DMSO or drugs. Samples were washed post-adsorption and incubated in the fresh media containing DMSO or drugs for 48 h before quantitation of viral load using real-time PCR of supernatant. The results shown in FIG. 5 represent mean±SD (n=6) relative to DMSO alone. […] Average IC50 values for CALU-3 cells compared to Vero/hSLAM cells assayed under the same conditions are shown (Table, right, n=independent experiments).
In general terms: In qPCR the cycle at which signal appears reflects the starting amount.

The subject of series [3] is seasonal coronavirus 229E. The experiment in a line: Huh-7 cells infected with 229E, treated after infection, viral load by real-time PCR of supernatant. It is filed as cell-based. The conditions noted are these: Huh-7, 229E MOI 0.01, 48 h post infection, read-out: IC50 (FIG. 6, panels A/B). The protocol:
Huh-7 cells were infected with 229E (MOI=0.01) for 2 h prior to addition of vehicle (DMSO), Ivermectin (FIG. 6, panel A) or Moxidectin (FIG. 6, panel B) at the indicated concentrations. Samples were taken 48 h post infection for quantitation of viral load using real-time PCR of supernatant. Results represent mean±SD (n=6) relative to DMSO alone.

In series [4] the test system is Vero/hSLAM cells. The conditions noted are these: for toxicity at any of the time points tested: sample wells or parallel drug alone samples, 5 μM.
Series [5] deals with SARS-CoV-2 clinical isolate Australia/VIC01/2020. The experiment in a line: SARS-CoV-2 infected CALU-3 (human lung) cells, viral load by real-time PCR of supernatant. Format: cell-based. The protocol: CALU-3 (human lung) cells were infected with SARS-CoV-2 clinical isolate Australia/VIC01/2020 (MOI=0.01) for 2 h prior to addition of vehicle (DMSO) or Ivermectin at the indicated concentrations indicated in FIG. 3. Samples were taken 24 h post infection for quantitation of viral load using real-time PCR of supernatant. The results illustrated in FIG. 3 represent mean±SD (n=6) relative to DMSO alone.

The subject of series [6] is seasonal coronavirus 229E. The experiment in a line: Prophylactic pre-treatment of Huh-7 cells before 229E infection, viral load by real-time PCR. Format: cell-based. The conditions noted are these: Huh-7 pre-treated 2 h, 229E MOI 0.01, 48 h; read-out: IC50 (FIG. 6, panel C), prophylactic. On the procedure: For assessment of prophylactic potential Huh-7 cells were pre-treated with DMSO or ivermectin at the indicated concentrations for 2 h prior to infection with 229E (MOI=0.01) for 2 h in the presence of DMSO or ivermectin (FIG. 6, panel C). Samples (n=5) were washed post-adsorption and incubated in the fresh media containing DMSO or ivermectin for 48 h before quantitation of viral load as above.

The mark [7] stands for this setting: 48 h, compared to vehicle DMSO, Vero/hSLAM, E gene, concentration not restated (5 μM in FIG. 2, panel A).
[8] abbreviates: 5 μM, 24 h, MOI 0.1, Vero/hSLAM, compared to vehicle DMSO.

As to `CO/N=C1\C[C@]2(C[C@@H]3C[C@@H](C/C=C(\C)C[C@@H](C)/C=C/C=C4\CO[C@@H]5[C@H](O)C(C)=C[C@@H](C(=O)O3)[C@]45O)O2)O[C@H](/C(C)=C/C(C)C)[C@H]1C` [moxidectin], the “reduction in viral RNA present in the supernatant (released virions)” value in series [1] (setting [7]) was 99.9%. The IC50 in series [1] (Severe acute respiratory syndrome coronavirus 2, 24 h, supernatant, E gene, MOI 0.01, Vero/hSLAM, read-out: Calculated IC50 (FIG. 2, panel B)) was 1.3 µM; in series [1] (Severe acute respiratory syndrome coronavirus 2, 48 h, supernatant, E gene, MOI 0.01, Vero/hSLAM, read-out: Calculated IC50 (FIG. 2, panel C)) it was 1.3 µM; in series [1] (Severe acute respiratory syndrome coronavirus 2, 72 h, supernatant, E gene, MOI 0.01, Vero/hSLAM, read-out: Calculated IC50 (FIG. 2, panel D)) it was 2.4 µM; in series [2] (Severe acute respiratory syndrome coronavirus 2, Vero, read-out: IC50 +/− SEM (n*), treated prophylactically), 1.66 µM; in series [2] (Severe acute respiratory syndrome coronavirus 2, pre-treated 2 h, MOI 0.01, 48 h, supernatant, Vero/hSLAM, read-out: IC50 (FIG. 5), prophylactic) it was 1.8 µM; in series [3] (Human coronavirus 229E) it was 0.24 µM. Also, in series [4], the “toxicity at any of the time points tested” value was “No toxicity”.
For the molecule ivermectin, the “reduction in cell-associated viral RNA (unreleased and unpackaged virions)” value in series [1] (setting [8]) was determined as 99.8%. Moreover, the “reduction in viral RNA present in the supernatant (released virions)” value turned out to be 93% in series [1] (setting [8]) and 99.5% in series [1] (setting [7]). Besides, the “reduction in viral RNA in both supernatant and cell pellets” value in series [1] (5 μM, 48 h, E gene, Vero/hSLAM) is recorded as above 5000. Moreover, the “reduction in viral RNA (equating to the >5000 reduction)” value in series [1] (5 μM, 48 h, supernatant and cell pellets, Vero/hSLAM) is listed as 99.98%. Moreover, the “further reduction in viral RNA at 72 h” value in series [1] (5 μM, 72 h versus 48 h, MOI 0.1, Vero/hSLAM) is listed as “no further reduction”. In addition, the IC50 in series [1] (24 h, supernatant, E gene, MOI 0.01, Vero/hSLAM, read-out: Calculated IC50 (FIG. 2, panel B)) was 1.4 µM; in series [1] (48 h, supernatant, E gene, MOI 0.01, Vero/hSLAM, read-out: Calculated IC50 (FIG. 2, panel C)) it was 2.2 µM; in series [1] (72 h, supernatant, E gene, MOI 0.01, Vero/hSLAM, read-out: Calculated IC50 (FIG. 2, panel D)) it was 3.1 µM; in series [1] (E gene, 48 h, treated 2 h post infection, MOI 0.1, Vero/hSLAM, panels C/D = supernatant and cell pellets, read-out: IC50 of ivermectin treatment (FIG. 1, panel C)), 2.8 µM; in series [1] (E gene, 48 h, treated 2 h post infection, MOI 0.1, Vero/hSLAM, panels C/D = supernatant and cell pellets, read-out: IC50 of ivermectin treatment (FIG. 1, panel D)), 2.4 µM; in series [1] (RdRp gene primers, 48 h, MOI 0.1, Vero/hSLAM, panels E/F = released (supernatant) and cell-associated virus, read-out: IC50 of ivermectin treatment (FIG. 1, panel E)) it was 2.5 µM. Further, the IC50 in series [1] (RdRp gene primers, 48 h, MOI 0.1, Vero/hSLAM, panels E/F = released (supernatant) and cell-associated virus, read-out: IC50 of ivermectin treatment (FIG. 1, panel F)) worked out at 2.2 µM; in series [1] (average of independent experiments, Vero/hSLAM assayed under the same conditions as CALU-3, read-out: IC50 +/− SEM (n*), Vero/hSLAM), 2.37 µM; in series [5] (CALU-3, 24 h post infection, supernatant, MOI 0.01, read-out: IC50 (FIG. 3)), 0.42 µM; in series [5] (average of independent experiments, CALU-3, read-out: IC50 +/− SEM (n*), CALU-3) it was 0.41 µM; in series [2] (average of independent experiments, Vero/hSLAM, read-out: IC50 +/− SEM (n*), treated prophylactically), 1.73 µM; in series [2] (pre-treated 2 h, MOI 0.01, 48 h, supernatant, Vero/hSLAM, read-out: IC50 (FIG. 5), prophylactic) it was 1.6 µM. Further, the IC50 in series [3] came out at 0.18 µM; in series [6] it was 2.06 µM. Moreover, the “toxicity at any of the time points tested” value in series [4] was “No toxicity”. Also, the “toxicity at any of the concentrations tested” value in series [4] (serial dilutions, 48 h) is “no toxicity”.
